This note sets out measurements from ChEMBL document CHEMBL1142430, “Acremine G, dimeric metabolite from cultures of Acremonium byssoides A20” (J Nat Prod, 2008).

One experiment has as its system Plasmopara viticola. Nature of the experiment: Inhibition of germination of sporangia of Plasmopara viticola at 1 mM. The format is functional.
Another experiment has as its system NCI-H460. Put plainly: Cytotoxicity against human H460 cells. The format is functional, cell-based.

In general, inhibition refers to the drop in the measured response relative to a control, in per cent. The low end stands for a weak effect, the high end for a strong effect. Usually IC50 stands for the concentration at which inhibition is half-maximal. The compound `CC(C)(O)/C=C/C1=CC(=O)[C@](C)(O)C[C@@H]1O` [ACREMINE A] gave an inhibition at 1000 µM in the experiment with Plasmopara viticola of 58.2%. In the experiment with NCI-H460, the half-inhibitory concentration (IC50) is above 100 µM.

In turn, `CC(C)(O)/C=C/C1=CC(=O)[C@](C)(O)CC1=O` [ACREMINE B] displayed an inhibition at 1000 µM with Plasmopara viticola of 57.7%. Moreover, in the experiment on NCI-H460, 36 µM corresponded to half-maximal inhibition (IC50).

As for `CC1=CC2c3cc(O)c(C)cc3OC3(C1)C(=O)C(C)=CC(=O)C23/C=C/C(C)(C)O` (racemic), in the experiment on Plasmopara viticola, testing at 1000 µM gave an inhibition of 72.5%. The compound also yielded an IC50 with NCI-H460 of 48 µM.
